Assay results taken from ChEMBL document CHEMBL1240496, “Development of potent glucagon-like peptide-1 agonists with high enzyme stability via introduction of multiple lactam bridges” (J Med Chem, 2010).
pEC50: −log10 of the molar value. Bridge positions count the residues as written; N and C are the ends. Peptide text beside a SMILES is read from it.

How the values were obtained:
[1] = target: T1, Glucagon-like peptide 1 receptor (Homo sapiens, UniProt P43220); assay: Activation of human GLP1 receptor expressed in HEK293 cells assessed as increase in cAMP accumulation; assay type: functional, cell-based; details: for pEC50: read-out: EC50
[2] = target: T1, Glucagon-like peptide 1 receptor; assay: Activation of human GLP1 receptor expressed in HEK293 cells assessed as increase in cAMP accumulation relative to GLP1; assay type: functional, cell-based
DPP4 = assay: Chemical stability of the compound assessed as half life up to 24 hrs by HPLC analysis in presence of human recombinant DPP4; assay type: physicochemical
NEP 24.11 = assay: Chemical stability of the compound assessed as half life up to 24 hrs by HPLC analysis in presence of human recombinant NEP 24.11; assay type: physicochemical

T1 sequence (P43220 whole entry): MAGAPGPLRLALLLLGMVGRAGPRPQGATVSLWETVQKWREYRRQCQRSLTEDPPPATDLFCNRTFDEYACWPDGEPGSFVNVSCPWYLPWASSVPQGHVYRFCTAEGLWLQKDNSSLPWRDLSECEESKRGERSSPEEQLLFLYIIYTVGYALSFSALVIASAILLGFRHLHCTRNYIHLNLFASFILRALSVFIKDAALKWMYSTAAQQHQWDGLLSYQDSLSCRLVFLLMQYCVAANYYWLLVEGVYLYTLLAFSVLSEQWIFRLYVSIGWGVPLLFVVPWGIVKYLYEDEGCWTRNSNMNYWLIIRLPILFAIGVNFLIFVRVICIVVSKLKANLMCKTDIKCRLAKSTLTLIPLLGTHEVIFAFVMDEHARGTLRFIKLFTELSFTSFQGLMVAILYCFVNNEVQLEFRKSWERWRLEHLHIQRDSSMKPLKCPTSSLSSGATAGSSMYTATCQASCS

Row | SMILES | pEC50 [1] | EC50 ([1]; read-out: pEC50 (converted)) | Activity [2] | half-life (DPP4) | half-life (NEP 24.11)
1 | CC[C@H](C)[C@H](NC(=O)[C@H](Cc1ccccc1)NC(=O)[C@H](CCC(=O)O)NC(=O)[C@H](CCCCN)NC(=O)[C@H](C)NC(=O)[C@H](C)NC(=O)[C@H](CCC(N)=O)NC(=O)CNC(=O)[C@H](CCC(=O)O)NC(=O)[C@H](CC(C)C)NC(=O)[C@H](Cc1ccc(O)cc1)NC(=O)[C@H](CO)NC(=O)[C@H](CO)NC(=O)[C@@H](NC(=O)[C@H](CC(=O)O)NC(=O)[C@H](CO)NC(=O)[C@@H](NC(=O)[C@H](Cc1ccccc1)NC(=O)[C@@H](NC(=O)CNC(=O)[C@H](CCC(=O)O)NC(=O)[C@H](C)NC(=O)[C@@H](N)Cc1cnc[nH]1)[C@@H](C)O)[C@@H](C)O)C(C)C)C(=O)N[C@H]1CCC(=O)NCCCC[C@@H](C(=O)NCC(=O)N[C@@H](CCCNC(=N)N)C(N)=O)NC(=O)[C@H](C(C)C)NC(=O)[C@H](CC(C)C)NC(=O)[C@H](Cc2c[nH]c3ccccc23)NC1=O | 8.28 | 2.51 nM | 90% | 3.3 h | 6.9 h
2 | CC[C@H](C)[C@H](NC(=O)[C@H](Cc1ccccc1)NC(=O)[C@H](CCC(=O)O)NC(=O)[C@@H]1CCCCNC(=O)CC[C@H](NC(=O)[C@H](CCC(=O)O)NC(=O)[C@H](CC(C)C)NC(=O)[C@H](Cc2ccc(O)cc2)NC(=O)[C@H](CO)NC(=O)[C@H](CO)NC(=O)[C@@H](NC(=O)[C@H](CC(=O)O)NC(=O)[C@H](CO)NC(=O)[C@@H](NC(=O)[C@H](Cc2ccccc2)NC(=O)[C@@H](NC(=O)CNC(=O)[C@H](CCC(=O)O)NC(=O)[C@H](C)NC(=O)[C@@H](N)Cc2cnc[nH]2)[C@@H](C)O)[C@@H](C)O)C(C)C)C(=O)N[C@@H](CCC(N)=O)C(=O)N[C@@H](C)C(=O)N[C@@H](C)C(=O)N1)C(=O)N[C@H]1CCC(=O)NCCCC[C@@H](C(=O)NCC(=O)N[C@@H](CCCNC(=N)N)C(N)=O)NC(=O)[C@H](C(C)C)NC(=O)[C@H](CC(C)C)NC(=O)[C@H](Cc2c[nH]c3ccccc23)NC1=O (H-HAEGTFTSDVSSYLEEQAAKEFIEWLVKGR-NH2; lactam 16-20, 24-28) | 8.80 | – | 290% | 6 h | 3.5 h
3 | CC[C@H](C)[C@H](NC(=O)[C@H](Cc1ccccc1)NC(=O)[C@H](CCC(=O)O)NC(=O)[C@H](CCCCN)NC(=O)[C@H](C)NC(=O)[C@H](C)NC(=O)[C@H](CCC(N)=O)NC(=O)CNC(=O)[C@H](CCC(=O)O)NC(=O)[C@@H]1CCC(=O)NCCCC[C@H](NC(=O)[C@H](CC(=O)O)NC(=O)[C@H](CO)NC(=O)[C@@H](NC(=O)[C@H](Cc2ccccc2)NC(=O)[C@@H](NC(=O)CNC(=O)[C@H](CCC(=O)O)NC(=O)[C@H](C)NC(=O)[C@@H](N)Cc2cnc[nH]2)[C@@H](C)O)[C@@H](C)O)C(=O)N[C@@H](CO)C(=O)N[C@@H](CO)C(=O)N[C@@H](Cc2ccc(O)cc2)C(=O)N1)C(=O)N[C@H]1CCCCNC(=O)CC[C@@H](C(=O)NCC(=O)N[C@@H](CCCNC(=N)N)C(N)=O)NC(=O)[C@H](C(C)C)NC(=O)[C@H](CC(C)C)NC(=O)[C@H](Cc2c[nH]c3ccccc23)NC1=O (H-HAEGTFTSDKSSYEEGQAAKEFIKWLVEGR-NH2; lactam 10-14, 24-28) | 8.15 | – | 70% | 2.9 h | 17 h
4 | CC[C@H](C)[C@H](NC(=O)[C@H](Cc1ccccc1)NC(=O)[C@H](CCC(=O)O)NC(=O)[C@@H]1CCC(=O)NCCCC[C@H](NC(=O)[C@H](CCC(=O)O)NC(=O)[C@H](CC(C)C)NC(=O)[C@H](Cc2ccc(O)cc2)NC(=O)[C@H](CO)NC(=O)[C@H](CO)NC(=O)[C@@H](NC(=O)[C@H](CC(=O)O)NC(=O)[C@H](CO)NC(=O)[C@@H](NC(=O)[C@H](Cc2ccccc2)NC(=O)[C@@H](NC(=O)CNC(=O)[C@H](CCC(=O)O)NC(=O)[C@H](C)NC(=O)[C@@H](N)Cc2cnc[nH]2)[C@@H](C)O)[C@@H](C)O)C(C)C)C(=O)N[C@@H](CCC(N)=O)C(=O)N[C@@H](C)C(=O)N[C@@H](C)C(=O)N1)C(=O)N[C@H]1CCCCNC(=O)CC[C@@H](C(=O)NCC(=O)N[C@@H](CCCNC(=N)N)C(N)=O)NC(=O)[C@H](C(C)C)NC(=O)[C@H](CC(C)C)NC(=O)[C@H](Cc2c[nH]c3ccccc23)NC1=O (H-HAEGTFTSDVSSYLEKQAAEEFIKWLVEGR-NH2; lactam 16-20, 24-28) | 8.66 | – | 210% | 7.3 h | 1.2 h
5 | CC[C@H](C)[C@H](NC(=O)[C@H](Cc1ccccc1)NC(=O)[C@H](CCC(=O)O)NC(=O)[C@H](CCCCN)NC(=O)[C@H](C)NC(=O)[C@H](C)NC(=O)[C@@H]1CCCCNC(=O)CC[C@H](NC(=O)[C@H](CO)NC(=O)[C@@H](NC(=O)[C@H](CC(=O)O)NC(=O)[C@H](CO)NC(=O)[C@@H](NC(=O)[C@H](Cc2ccccc2)NC(=O)[C@@H](NC(=O)CNC(=O)[C@H](CCC(=O)O)NC(=O)[C@H](C)NC(=O)[C@@H](N)Cc2cnc[nH]2)[C@@H](C)O)[C@@H](C)O)C(C)C)C(=O)N[C@@H](Cc2ccc(O)cc2)C(=O)N[C@@H](CC(C)C)C(=O)NCC(=O)N1)C(=O)N[C@@H](C)C(=O)N[C@@H](Cc1c[nH]c2ccccc12)C(=O)N[C@@H](CC(C)C)C(=O)N[C@H](C(=O)N[C@@H](CCCCN)C(=O)NCC(=O)N[C@@H](CCCNC(=N)N)C(N)=O)C(C)C (H-HAEGTFTSDVSEYLGKAAKEFIAWLVKGR-NH2; lactam 12-16) | 9.22 | – | 770% | 2.1 h | 10 h
6 | CC[C@H](C)[C@H](NC(=O)[C@H](Cc1ccccc1)NC(=O)[C@H](CCC(=O)O)NC(=O)[C@H](CCCCN)NC(=O)[C@H](C)NC(=O)[C@H](C)NC(=O)[C@H](CCC(N)=O)NC(=O)CNC(=O)[C@@H]1CCCCNC(=O)CC[C@H](NC(=O)[C@H](CC(=O)O)NC(=O)[C@H](CO)NC(=O)[C@@H](NC(=O)[C@H](Cc2ccccc2)NC(=O)[C@@H](NC(=O)CNC(=O)[C@H](CCC(=O)O)NC(=O)[C@H](C)NC(=O)[C@@H](N)Cc2cnc[nH]2)[C@@H](C)O)[C@@H](C)O)C(=O)N[C@@H](CO)C(=O)N[C@@H](CO)C(=O)N[C@@H](Cc2ccc(O)cc2)C(=O)N1)C(=O)N[C@@H](C)C(=O)N[C@@H](Cc1c[nH]c2ccccc12)C(=O)N[C@@H](CC(C)C)C(=O)N[C@H](C(=O)N[C@@H](CCCCN)C(=O)NCC(=O)N[C@@H](CCCNC(=N)N)C(N)=O)C(C)C (H-HAEGTFTSDESSYKGQAAKEFIAWLVKGR-NH2; lactam 10-14) | 8.42 | – | 120% | 1.8 h | 3.2 h
